Experimental data published in patent US8173788B2, “Peptide having ability to activate cancer-related gene” (priority 2005, dated 2012).

System: human normal peripheral blood monocyte
Assay: Influence of the artificially synthesized peptide on normal cell genes: coculture 7 hr, DNA chip system (Clontech), about 55000 human genes (Table 4)
Assay type: cell-based
Details: Suppressed Gene, Immune System Gene
Description: (a) The peptide obtained in Example 3 was added to a human normal peripheral blood monocyte culture system (10 to 100 μg peptide/1×10^6 to 1×10^7 monocytes), and they were cocultured for 7 hr. Then, mRNA was extracted from the monocytes and was applied to analysis for up-regulation and down-regulation in respect to about 55000 human genes by using DNA chip system (Clontech).

[1] = Gene No. 12812, ovarian carcinoma immunoreactive antigen (OCIA)
[2] = Gene No. 14949, programmed cell death 10 (PDCD10), transcript variant 1
[3] = Gene No. 15907, intercellular adhesion molecule 2 (ICAM2)
[4] = Gene No. 15994, beta-2-microglobulin (B2M)
[5] = Gene No. 16478, tumor necrosis factor (ligand) superfamily, member 12 (TNFSF12), transcript variant 1, mRNA
[6] = Gene No. 16756, major histocompatibility complex, class I, E (HLA-E)
[7] = Gene No. 17177, tumor necrosis factor superfamily, member 5-induced protein 1 (TNFSF5IP1)
[8] = Gene No. 18139, major histocompatibility complex, class II, DQ alpha 1 (HLA-DQA1)
[9] = Gene No. 18884, (clone 38-1) MHC class I mRNA fragment.
[10] = Gene No. 20551, IL2-inducible T-cell kinase (ITK)
[11] = Gene No. 20881, natural killer cell transcript 4 (NK4)
[12] = Gene No. 21487, programmed cell death 2 (PDCD2), transcript variant 1
[13] = Gene No. 22326, immune associated nucleotide 2 (hIAN2)
[14] = Gene No. 22789, CASP8 and FADD-like apoptosis regulator (CFLAR)
[15] = Gene No. 22868, lymphocyte cytosolic protein 2 (SH2 domain containing leukocyte protein of 76 kDa) (LCP2)
[16] = Gene No. 22890, NK inhibitory receptor precursor (NKIR)
[17] = Gene No. 23827, major histocompatibility complex, class II, DM alpha (HLA-DMA)
[18] = Gene No. 24440, THYMUS cDNA clone CS0CAP007YL06 5-PRIME
[19] = Gene No. 24969, CD69 antigen (p60, early T-cell activation antigen) (CD69)
[20] = Gene No. 34736, adhesion molecule AMICA (AMICA)
[21] = Gene No. 37068, immediate early response 2 (IER2)
[22] = Gene No. 37445, mal, T-cell differentiation protein (MAL), transcript variant d
[23] = Gene No. 37834, proteasome (prosome, macropain) 26S subunit, non-ATPase, 1 (PSMD1)
[24] = Gene No. 38103, tumor necrosis factor receptor superfamily, member 7 (TNFRSF7)
[25] = Gene No. 38879, interferon stimulated gene 20 kDa (ISG20)
[26] = Gene No. 39926, thymosin-like 6 (TMSL6)
[27] = Gene No. 39991, lymphotoxin beta (TNF superfamily, member 3) (LTB), transcript variant 2
[28] = Gene No. 40727, linker for activation of T cells (LAT)
[29] = Gene No. 41726, apoptosis-associated speck-like protein containing a CARD (ASC), transcript variant 1
[30] = Gene No. 41803, programmed cell death 2 (PDCD2), transcript variant 2
[31] = Gene No. 41817, major histocompatibility complex, class I, F (HLA-F)
[32] = Gene No. 42474, programmed cell death 6 (PDCD6)
[33] = Gene No. 42573, T-cell activation protein (PGR1)
[34] = Gene No. 42614, killer cell lectin-like receptor subfamily K, member 1 (KLRK1)
[35] = Gene No. 42661, proteasome (prosome, macropain) subunit, beta type, 9 (large multifunctional protease 2) (PSMB9), transcript variant 1
[36] = Gene No. 42680, proteasome (prosome, macropain) 26S subunit, ATPase, 4 (PSMC4), transcript variant 1
[37] = Gene No. 42813, granzyme A (granzyme 1, cytotoxic T-lymphocyte-associated serine esterase 3) (GZMA)
[38] = Gene No. 43032, interferon, gamma-inducible protein 16 (IFI16)
[39] = Gene No. 45767, HLA-B associated transcript 1 (BAT1), transcript variant 1
[40] = Gene No. 46186, cell death-regulatory protein GRIM19 (GRIM19)
[41] = Gene No. 47689, killer cell lectin-like receptor subfamily B, member 1 (KLRB1)
[42] = Gene No. 47973, CD8 antigen, beta polypeptide 1 (p37) (CD8B1), transcript variant 5
[43] = Gene No. 49170, interferon gamma receptor 2 (interferon gamma transducer 1) (IFNGR2)
[44] = Gene No. 49586, interleukin-1 receptor-associated kinase 4 (IRAK4)
[45] = Gene No. 49622, intercellular adhesion molecule 3 (ICAM3)
[46] = Gene No. 51004, tumor necrosis factor (ligand) superfamily, member 10 (TNFSF10)
[47] = Gene No. 52071, interferon (alpha, beta and omega) receptor 1 (IFNAR1)
[48] = Gene No. 52342, apoptosis-related protein PNAS-1 (FLJ39616)
[49] = Gene No. 52539, major histocompatibility complex, class II, DR alpha (HLA-DRA)
[50] = Gene No. 53172, transforming growth factor, beta 1 (Camurati-Engelmann disease) (TGFB1)

## the Peptide (QPQFGRRMESK; Human squamous cell carcinoma)
Gene No. 11651, implantation-associated protein (DKFZp564K142)
  Suppression Ratio: 89.16
[1]
  Expression Amount after Treatment with the Peptide: 24.53
  Suppression Ratio: 47.97
[2]
  Expression Amount after Treatment with the Peptide: 25.27
  Suppression Ratio: 40.37
[3]
  Expression Amount after Treatment with the Peptide: 6.364
  Suppression Ratio: 143.4
[4]
  Expression Amount after Treatment with the Peptide: 239.5
  Suppression Ratio: 47.59
[5]
  Expression Amount after Treatment with the Peptide: 6.018
  Suppression Ratio: 110.2
[6]
  Expression Amount after Treatment with the Peptide: 2.806
  Suppression Ratio: 140.8
[7]
  Expression Amount after Treatment with the Peptide: 26.16
  Suppression Ratio: 39.51
[8]
  Expression Amount after Treatment with the Peptide: 33.12
  Suppression Ratio: 80.32
[9]
  Expression Amount after Treatment with the Peptide: 3.387
  Suppression Ratio: 100.2
[10]
  Expression Amount after Treatment with the Peptide: 22.93
  Suppression Ratio: 122.6
[11]
  Expression Amount after Treatment with the Peptide: 38.17
  Suppression Ratio: 172.9
[12]
  Expression Amount after Treatment with the Peptide: 9.909
  Suppression Ratio: 39.12
[13]
  Expression Amount after Treatment with the Peptide: 9.743
  Suppression Ratio: 113.2
[14]
  Expression Amount after Treatment with the Peptide: 9.725
  Suppression Ratio: 75.25
[15]
  Expression Amount after Treatment with the Peptide: 6.525
  Suppression Ratio: 82.73
[16]
  Expression Amount after Treatment with the Peptide: 9.902
  Suppression Ratio: 112.4
[17]
  Expression Amount after Treatment with the Peptide: 29.78
  Suppression Ratio: 80.72
[18]
  Expression Amount after Treatment with the Peptide: 0.2348
  Suppression Ratio: 59.63
[19]
  Expression Amount after Treatment with the Peptide: 25.71
  Suppression Ratio: 95.14
[20]
  Expression Amount after Treatment with the Peptide: 29.08
  Suppression Ratio: 136.7
[21]
  Expression Amount after Treatment with the Peptide: 57.38
  Suppression Ratio: 121.3
[22]
  Expression Amount after Treatment with the Peptide: 14.875
  Suppression Ratio: 112.4
[23]
  Expression Amount after Treatment with the Peptide: 14.11
  Suppression Ratio: 38.69
[24]
  Expression Amount after Treatment with the Peptide: 5.778
  Suppression Ratio: 121.8
[25]
  Expression Amount after Treatment with the Peptide: 31.94
  Suppression Ratio: 91.84
[26]
  Expression Amount after Treatment with the Peptide: 317.7
  Suppression Ratio: 54.8
[27]
  Expression Amount after Treatment with the Peptide: 17.77
  Suppression Ratio: 135.9
[28]
  Expression Amount after Treatment with the Peptide: 28.17
  Suppression Ratio: 42.75
[29]
  Expression Amount after Treatment with the Peptide: 33.51
  Suppression Ratio: 134.7
[30]
  Expression Amount after Treatment with the Peptide: 0.82
  Suppression Ratio: 108.8
[31]
  Expression Amount after Treatment with the Peptide: 98.43
  Suppression Ratio: 107.9
[32]
  Expression Amount after Treatment with the Peptide: 17.04
  Suppression Ratio: 68.35
[33]
  Expression Amount after Treatment with the Peptide: 15.75
  Suppression Ratio: 60.53
[34]
  Expression Amount after Treatment with the Peptide: 4.848
  Suppression Ratio: 129.2
[35]
  Expression Amount after Treatment with the Peptide: 39.14
  Suppression Ratio: 38.48
[36]
  Expression Amount after Treatment with the Peptide: 42.03
  Suppression Ratio: 38.46
[37]
  Expression Amount after Treatment with the Peptide: 38.51
  Suppression Ratio: 115.5
[38]
  Expression Amount after Treatment with the Peptide: 4.446
  Suppression Ratio: 116.8
[39]
  Expression Amount after Treatment with the Peptide: 18.125
  Suppression Ratio: 130.2
[40]
  Expression Amount after Treatment with the Peptide: 25.55
  Suppression Ratio: 55.07
[41]
  Expression Amount after Treatment with the Peptide: 72.08
  Suppression Ratio: 52.77
[42]
  Expression Amount after Treatment with the Peptide: 9.639
  Suppression Ratio: 153.6
[43]
  Expression Amount after Treatment with the Peptide: 10.09
  Suppression Ratio: 70.7
[44]
  Expression Amount after Treatment with the Peptide: 2.716
  Suppression Ratio: 91.49
[45]
  Expression Amount after Treatment with the Peptide: 39.68
  Suppression Ratio: 86.23
[46]
  Expression Amount after Treatment with the Peptide: 8.725
  Suppression Ratio: 39.65
[47]
  Expression Amount after Treatment with the Peptide: 9.429
  Suppression Ratio: 44.09
[48]
  Expression Amount after Treatment with the Peptide: 18.72
  Suppression Ratio: 64.11
[49]
  Expression Amount after Treatment with the Peptide: 158.7
  Suppression Ratio: 109.3
[50]
  Expression Amount after Treatment with the Peptide: 6.56
  Suppression Ratio: 88.02
